These results are taken from US20250134869A1, “Pyrrolo[2,3-d]pyrimidinyl, Pyrrolo[2,3-b]pyrazinyl and Pyrrolo[2,3-d]pyridinyl Acryla-mides” (Pfizer Inc, priority 2021, published 2025).

Assay [1] has as its system IL-15 induced P-STAT5 in human PBMC. Put plainly: PBMC IL-15 induced P-STAT5. The format is cell-based. As to conditions: human PBMC, IL-15 stimulated, read-out: PBMC IL15-pSTAT5 IC50. The method, then: PBMC IL-15 Induced P-STAT5
Frozen human PBMC (200-250 million cells/vial) was thawed at 37° C. The cells were transferred to 10 mL warm medium in a 50-mL conical tube, and centrifuged at 1,200 RPM at room temperature for 5 min. The supernatant was aspirated. […] After adding 47 ml D-PBS (37° C.) to PBMC/FBS suspension, centrifuging at 1,200 RPM at room temperature for 5 min, and aspirating the supernatant, the cells were resuspended in 20 mL warm RPMI medium. Ninety μL of cell suspension were pipetted per well in a 96-well, deep-well, V-bottom plate, and the plate was incubated at 37° C. for 30 min. […] After adding 0.8 mL staining buffer per well, the plates were centrifuged at 1,200 RPM (Beckman GS-6R or Sorvall Legend) at room temperature for 5 min, and again the supernatant was aspirated using a 8-channel or 12-channel manifold. The plate was vortexed, and 0.35 mL 90% methanol/10% H2O (−20° C.) was added per well, and the plate incubated on ice for 20 min. After again adding 0.8 mL staining buffer per well, the plates were centrifuged at 1,200 RPM (Beckman GS-6R or Sorvall Legend) at room temperature for 5 min, and again the supernatant was aspirated using a 8-channel or 12-channel manifold, and then 0.8 mL Staining buffer was added per well. After once again adding 0.8 mL staining buffer per well, the plates were centrifuged at 1,200 RPM (Beckman GS-6R or Sorvall Legend) at room temperature for 5 min, and again the supernatant was aspirated using a 8-channel or 12-channel manifold. […] Samples of 250 μL/well were transferred to a 96-well U-bottom plate, and the FACS analysis was performed gating on total lymphocytes. Samples were analyzed using a BD Calibur™ or BD FACSCanto™ flow cytometer equipped with the BD High Throughput Sampler.

For a further assay, the target named is JAK3 enzyme (Homo sapiens (Human), UniProt P52333). Put plainly: JAK Caliper Enzyme Assay at 4 μM or 1 mM ATP. The assay is classed as biochemical.
JAK3 enzyme, sequence (P52333 whole entry, species assumed): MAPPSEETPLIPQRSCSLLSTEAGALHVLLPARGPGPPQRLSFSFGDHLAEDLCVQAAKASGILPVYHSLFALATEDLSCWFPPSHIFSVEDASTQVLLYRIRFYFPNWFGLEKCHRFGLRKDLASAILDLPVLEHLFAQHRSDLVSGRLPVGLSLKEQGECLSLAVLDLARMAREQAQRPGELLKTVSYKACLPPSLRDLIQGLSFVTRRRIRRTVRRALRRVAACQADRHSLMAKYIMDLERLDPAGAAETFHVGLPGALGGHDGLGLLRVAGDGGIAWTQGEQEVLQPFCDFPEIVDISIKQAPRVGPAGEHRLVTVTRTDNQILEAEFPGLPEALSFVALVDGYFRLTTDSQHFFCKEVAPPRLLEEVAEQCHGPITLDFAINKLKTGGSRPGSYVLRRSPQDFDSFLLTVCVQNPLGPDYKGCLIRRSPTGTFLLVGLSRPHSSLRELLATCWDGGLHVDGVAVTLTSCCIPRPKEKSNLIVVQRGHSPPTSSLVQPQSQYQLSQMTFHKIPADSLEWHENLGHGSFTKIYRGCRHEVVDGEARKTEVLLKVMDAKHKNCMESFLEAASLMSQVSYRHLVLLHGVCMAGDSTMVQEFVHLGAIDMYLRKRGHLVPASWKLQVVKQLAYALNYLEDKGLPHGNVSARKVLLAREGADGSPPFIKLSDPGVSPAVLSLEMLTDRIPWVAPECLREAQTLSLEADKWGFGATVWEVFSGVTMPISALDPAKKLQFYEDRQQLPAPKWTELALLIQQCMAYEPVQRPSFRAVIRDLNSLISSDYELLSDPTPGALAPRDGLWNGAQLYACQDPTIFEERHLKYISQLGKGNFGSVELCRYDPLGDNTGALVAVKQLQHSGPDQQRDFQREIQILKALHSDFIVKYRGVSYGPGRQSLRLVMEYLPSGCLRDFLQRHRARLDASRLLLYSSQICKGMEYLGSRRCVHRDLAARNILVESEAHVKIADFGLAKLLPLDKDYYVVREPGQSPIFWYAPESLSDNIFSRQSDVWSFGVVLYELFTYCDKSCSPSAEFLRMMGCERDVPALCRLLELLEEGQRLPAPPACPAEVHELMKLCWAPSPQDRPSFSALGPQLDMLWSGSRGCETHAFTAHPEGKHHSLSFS
The mark [2] stands for this setting: read-out: JAK3 (4 μM ATP) IC50, 4 μM ATP.
The mark [3] stands for this setting: read-out: JAK3 (1 mM ATP) IC50, 1 mM ATP.

SMILES strings stand for the structures. Read-outs that look alike come from different tables or passages of the source.

Regarding `C=CC(=O)N1CC(Nc2ncnc3[nH]ccc23)CCC1CO` (stereo not drawn) [Example 52, 1-[2-(Hydroxymethyl)-5-(7H-pyrrolo[2,3-d]pyrimidin-4-ylamino)piperidin-1-yl]prop-2-en-1-one], the IC50 (usually the concentration needed to halve the response being measured) in assay [1] is above 354 nM.

As for `C=CC(=O)N1CC[C@H]2CCN(c3ncnc4[nH]ccc34)[C@H]2C1` [Example 76, 1-[(3aR,7aR)-1-(7H-Pyrrolo[2,3-d]pyrimidin-4-yl)octahydro-6H-pyrrolo[2,3-c]pyridin-6-yl]prop-2-en-1-one], in assay [1], the IC50 was above 6080 nM.

Take `O=C(/C=C/C(F)(F)F)N1CC[C@@H]2CCN(c3ncnc4[nH]ccc34)[C@@H]2C1` [Example 81, (2E)-4,4,4-trifluoro-1-[(3aS,7aS)-1-(7H-pyrrolo[2,3-d]pyrimidin-4-yl)octahydro-6H-pyrrolo[2,3-c]pyridin-6-yl]but-2-en-1-one]: in assay [1] (Homo sapiens, PBMC), the IC50 was above 4000 nM.

On to `C=CC(=O)N1CC[C@@H]2CCN(c3ncnc4[nH]ccc34)[C@H]2C1` [Example 49, 1-[(3aS,7aR)-1-(7H-Pyrrolo[2,3-d]pyrimidin-4-yl)octahydro-6H-pyrrolo[2,3-c]pyridin-6-yl]prop-2-en-1-one], for which the half-inhibitory concentration (IC50) in assay [1] stood at 355 nM.

With `C=CC(=O)N1CCC[C@@](C)(Nc2ncnc3[nH]ccc23)C1` [Example 72, (R)-1-(3-((7H-pyrrolo[2,3-d]pyrimidin-4-yl)amino)-3-methylpiperidin-1-yl)prop-2-en-1-one], in assay [1] (Homo sapiens, PBMC), the 50% inhibitory concentration (IC50) was above 10000 nM.

Regarding `C=C(CN(C)C)C(=O)N1CCC[C@@H](Nc2ncnc3[nH]ccc23)C1` [Example 92, 2-[(dimethylamino)methyl]-1-[(3R)-3-(7H-pyrrolo[2,3-d]pyrimidin-4-ylamino)piperidin-1-yl]prop-2-en-1-one], the IC50 in assay [1] is above 10000 nM.

With `C=CC(=O)N1CCCC(C)(Nc2ncnc3[nH]ccc23)C1` (stereo not drawn) [Example 71, 1-(3-((7H-Pyrrolo[2,3-d]pyrimidin-4-yl)amino)-3-methylpiperidin-1-yl)prop-2-en-1-one], the 50% inhibitory concentration (IC50) in assay [1] (Homo sapiens, PBMC) was above 10000 nM.

On to `C=CC(=O)N1CC[C@H](O)[C@@H](Nc2ncnc3[nH]ccc23)C1` (racemic) [Example 113, rac-1-[(3S,4S)-4-Hydroxy-3-(7H-pyrrolo[2,3-d]pyrimidin-4-ylamino)piperidin-1-yl]prop-2-en-1-one], for which the IC50 in assay [1] is above 10000 nM.

For `C=CC(=O)N1CC[C@@H]2OCCN(c3ncnc4[nH]ccc34)[C@@H]2C1` [Example 90, 1-[(4aR,8aS)-4-(7H-Pyrrolo[2,3-d]pyrimidin-4-yl)hexahydro-2H-pyrido[4,3-b][1,4]oxazin-6 (5H)-yl]prop-2-en-1-one], in assay [1] (Homo sapiens, PBMC), the IC50 is above 10000 nM.

On to `C=CC(=O)N1CCC(Nc2cnc3[nH]cc(C(=O)N[C@H](C(C)C)[C@@H](O)C(F)(F)F)c3n2)CC1` [Example 248, 2-[(1-acryloylpiperidin-4-yl)amino]-N-[(2R,3R)-1,1,1-trifluoro-2-hydroxy-4-methylpentan-3-yl]-5H-pyrrolo[2,3-b]pyrazine-7-carboxamide], for which the IC50 at JAK3 enzyme (setting [2]) is 0.4 nM; at JAK3 enzyme (setting [3]) it was 40.2 nM.

As for `C=CC(=O)N1CCC(Nc2cnc3[nH]cc(C(=O)N[C@H]4CC[C@@H](F)C4)c3n2)CC1` [Example 244, 2-[(1-acryloylpiperidin-4-yl)amino]-N-[(1S,3R)-3-fluorocyclopentyl]-5H-pyrrolo[2,3-b]pyrazine-7-carboxamide], the IC50 is 0.2 nM at JAK3 enzyme (setting [2]) and 7.3 nM on JAK3 enzyme (setting [3]).

As for `C=CC(=O)N1CCC(Nc2cnc3[nH]cc(C(=O)NCC(F)(F)F)c3n2)CC1` [Example 273, 2-[(1-acryloylpiperidin-4-yl)amino]-N-(2,2,2-trifluoroethyl)-5H-pyrrolo[2,3-b]pyrazine-7-carboxamide], the results for the IC50 on JAK3 enzyme (setting [2]) and at JAK3 enzyme (setting [3]) were 0.4 nM and 11.4 nM, respectively.

In the case of `C=CC(=O)N1C[C@H](Nc2ncnc3[nH]cc(Cl)c23)CC[C@@H]1C` [Example 18, 1-((2S,5R)-5-((5-Chloro-7H-pyrrolo[2,3-d]pyrimidin-4-yl)amino)-2-methylpiperidin-1-yl)prop-2-en-1-one], the IC50 at JAK3 enzyme (setting [2]) came out at 0.2 nM; at JAK3 enzyme (setting [3]), 16.1 nM.

For the molecule `C=CC(=O)N1CCC[C@@H](Nc2ncnc3[nH]cc(CC(C)(C)O)c23)C1` [Example 53, (R)-1-(3-((5-(2-Hydroxy-2-methylpropyl)-7H-pyrrolo[2,3-d]pyrimidin-4-yl)amino)piperidin-1-yl)prop-2-en-1-one], the concentration for half-maximal inhibition (IC50) amounted to 4 nM on JAK3 enzyme (setting [2]) and 192 nM at JAK3 enzyme (setting [3]).

With `C=CC(=O)N1CCC[C@@H](Nc2ncnc3[nH]cc(-c4ccc(C(=O)N(C)C)cc4)c23)C1` [Example 27, 4-(4-{[(3R)-1-acryloylpiperidin-3-yl]amino}-7H-pyrrolo[2,3-d]pyrimidin-5-yl)-N,N-dimethylbenzamide], the IC50 at JAK3 enzyme (setting [2]) turned out to be 2.8 nM; at JAK3 enzyme (setting [3]), 294 nM.

For `C=CC(=O)N1CCC(Oc2cnc3[nH]cc(-c4ccc(C)nc4)c3n2)CC1` [Example 214, 1-(4-{[7-(6-methylpyridin-3-yl)-5H-pyrrolo[2,3-b]pyrazin-2-yl]oxy}piperidin-1-yl)prop-2-en-1-one], the 50% inhibitory concentration (IC50) on JAK3 enzyme (setting [2]) was found to be 2.3 nM; on JAK3 enzyme (setting [3]), 308 nM.

Turning to `C=CC(=O)N1CCC(Nc2cnc3[nH]cc(C(=O)N[C@@H](C)COC)c3n2)CC1` [Example 277, 2-[(1-acryloylpiperidin-4-yl)amino]-N-[(2S)-1-methoxypropan-2-yl]-5H-pyrrolo[2,3-b]pyrazine-7-carboxamide], the half-inhibitory concentration (IC50) at JAK3 enzyme (setting [2]) was found to be 0.3 nM; at JAK3 enzyme (setting [3]), 6.6 nM.

For `C/C=C/C(=O)N1CCC[C@@H](Nc2ncnc3[nH]cc(C(=O)NCCO)c23)C1` [Example 148, 4-({(3R)-1-[(2E)-but-2-enoyl]piperidin-3-yl}amino)-N-(2-hydroxyethyl)-7H-pyrrolo[2,3-d]pyrimidine-5-carboxamide], at JAK3 enzyme (setting [2]), the 50% inhibitory concentration (IC50) was found to be 6960 nM.

`C=CC(=O)N(C)C1CN(c2cnc3[nH]cc(C(=O)NC(C)C)c3n2)C1` [Example 187, 2-{3-[acryloyl(methyl)amino]azetidin-1-yl}-N-(propan-2-yl)-5H-pyrrolo[2,3-b]pyrazine-7-carboxamide]: the half-inhibitory concentration (IC50) on JAK3 enzyme (setting [2]) was 0.6 nM; at JAK3 enzyme (setting [3]), 27.2 nM.

For the molecule `C=CC(=O)N1CC[C@@H](Nc2cnc3[nH]cc(C(=O)NC(C)C)c3n2)[C@@H](F)C1` [Example 320, 2-{[(3S,4R)-1-acryloyl-3-fluoropiperidin-4-yl]amino}-N-(propan-2-yl)-5H-pyrrolo[2,3-b]pyrazine-7-carboxamide], the IC50 on JAK3 enzyme (setting [2]) was 0.4 nM; on JAK3 enzyme (setting [3]) it was 10.7 nM.

With `C=CC(=O)N1CCN(c2cnc3[nH]cc(C(=O)NC(C)C)c3n2)[C@H](C2CC2)C1` [Example 309, 2-[(2R)-4-acryloyl-2-cyclopropylpiperazin-1-yl]-N-(propan-2-yl)-5H-pyrrolo[2,3-b]pyrazine-7-carboxamide], the half-inhibitory concentration (IC50) at JAK3 enzyme (setting [2]) amounted to 6.6 nM; at JAK3 enzyme (setting [3]), 814 nM.

`C=CC(=O)N1CCC(Nc2cnc3[nH]cc(C(=O)N[C@@H]4CC[C@H](F)C4)c3n2)CC1` [Example 255, 2-[(1-acryloylpiperidin-4-yl)amino]-N-[(1R,3S)-3-fluorocyclopentyl]-5H-pyrrolo[2,3-b]pyrazine-7-carboxamide]: the 50% inhibitory concentration (IC50) was found to be 0.3 nM at JAK3 enzyme (setting [2]) and 9.7 nM at JAK3 enzyme (setting [3]).

Regarding `C=CC(=O)N1CCC[C@@H](Nc2ncnc3[nH]cc(/C=C/c4ccoc4)c23)C1` [Example 38, 1-[(3R)-3-({5-[(E)-2-(furan-3-yl)ethenyl]-7H-pyrrolo[2,3-d]pyrimidin-4-yl}amino)piperidin-1-yl]prop-2-en-1-one], the 50% inhibitory concentration (IC50) at JAK3 enzyme (setting [2]) was found to be 3250 nM.

For the molecule `C=CC(=O)N1[C@H](C)CN(c2cnc3[nH]cc(C(=O)NC(C)C)c3n2)C[C@@H]1C` [Example 306, 2-[(3R,5S)-4-acryloyl-3,5-dimethylpiperazin-1-yl]-N-(propan-2-yl)-5H-pyrrolo[2,3-b]pyrazine-7-carboxamide], the concentration for half-maximal inhibition (IC50) stood at 3.9 nM at JAK3 enzyme (setting [2]) and 326 nM on JAK3 enzyme (setting [3]).

For the molecule `C=CC(=O)N1CCC(Nc2cnc3[nH]cc(C(=O)NC4CCCCC4(F)F)c3n2)CC1` (stereo not drawn) [Example 256, 2-[(1-acryloylpiperidin-4-yl)amino]-N-(2,2-difluorocyclohexyl)-5H-pyrrolo[2,3-b]pyrazine-7-carboxamide], the IC50 at JAK3 enzyme (setting [2]) is 0.2 nM; at JAK3 enzyme (setting [3]), 7.9 nM.

Consider `C=CC(=O)NC1CN(c2cnc3[nH]cc(C(=O)NC(C)C)c3n2)C1` [Example 173, 2-[3-(acryloylamino)azetidin-1-yl]-N-(propan-2-yl)-5H-pyrrolo[2,3-b]pyrazine-7-carboxamide], for which the IC50 worked out at 8.1 nM at JAK3 enzyme (setting [2]) and 692 nM at JAK3 enzyme (setting [3]).

For `C=CC(=O)N1CC[C@H]2CN(c3ncnc4[nH]ccc34)[C@H]2C1` [Example 134, 1-[(1R,6S)-8-(7H-Pyrrolo[2,3-d]pyrimidin-4-yl)-3,8-diazabicyclo[4.2.0]oct-3-yl]prop-2-en-1-one], on JAK3 enzyme (setting [2]), the IC50 came to 71.2 nM.
